From patent US10717699B1, “Crotonyl alcohol cassic acid ester with antibacterial activity and a method of preparing the same” (SOUTHWEST UNIVERSITY, priority 2020, dated 2020)
In brackets after ≈: the same amount, converted by molar mass.

Assays:
Assay type in all cases: cell-based
[1] = tested on: multidrug-resistant Pseudomonas aeruginosa MDR-PA 18-1774,18-202; assay: MIC by microbroth dilution method, MDR-PA strains; details: 37° C., 20-22 hours
From the text: (§1) The minimal inhibitory concentration (MIC) of the compounds as determined by microbroth dilution method with gentamicin, cefazolin sodium and ceftriaxone sodium as positive control.
(§2) The experimental strains included methicillin-resistant Gram-positive bacteria: methicillin-resistant Staphylococcus aureus MRSA 18-222, 18-575; multiple drug-resistant […] bacteria: vancomycin-resistant enterococci VRE 18-80,18-94, multidrug-resistant Pseudomonas aeruginosa MDR-PA 18-1774,18-202, carbapenem-resistant Acinetobacter baumannii CR-AB 18-183,18-560. All the experimental strains were donated by Huashan Hospital affiliated to Fudan University (Institute of antibiotics, Fudan University) and used after routine identification.
(§3) Preparation of MHB medium: 20.0 g MHB medium was added to 1 L distilled water, boiled until completely dissolved, packed in conical bottles and sterilized at 121° C. for 15 min.
(§4) The experimental strain was cultured to the logarithmic growth phase: under aseptic condition, the experimental strain was inoculated into 100 mL MHB medium and incubated in a constant temperature and humidity incubator at 37° C. for 20-22 hours.
(§5) Preparation of storage solution: weigh the sample to be tested, dissolve it with 1% DMSO solution, prepare a storage solution with a concentration of 2560 μg/mL, weigh a positive reference substance, dissolve it with aseptic distilled water, and configure a storage solution with a concentration of 2560 μg/mL.
(§6) Preparation of bacterial suspension: under aseptic condition, the experimental strains cultured to logarithmic growth phase were adjusted to 0.5 MCF turbidity standard with MHB medium and diluted according to 1:10, and the bacterial suspension with concentration of 10^6 CFU/mL was prepared for standby.
(§7) Dilution of storage solution and inoculation of experimental strain: under aseptic condition, the storage solution was diluted to 256 μg/mL solution. Take a sterile 96-well plate, add 200 μL MHB medium to the 12th well, and add 100 μL MHB medium to each well. Add 100 μL of positive control solution to the first well, mix well, and suck 100 μL from it and discard. Add 100 μL of the compound sample solution to the second well, mix well, and then pipette 100 μL to the third well. After mixing, pipette 100 μL to the fourth well, and dilute to the 11th well in this way. Finally, 100 μL was pipetted from the 11th well and discarded. The 12th hole was the growth control without drugs. So far, the concentration of the positive reference substance is 128 μg/mL, the concentrations of the sample solution are 128, […], 8, 4, 2, 1, 0.5, 0.25 μg/mL respectively. Then, 10μL of the prepared bacterial suspension is added to each well, so that the final concentration of the bacterial liquid in each well is 5×10^5 CFU/mL.
(§8) Incubation: Cover the 96-well plate inoculated with the experimental strains, and incubate in a constant temperature and humidity box at 37° C. for 20-22 hours.

drug-resistant bacteria = assay: Antibacterial activity test, summary over all experimental strains; details: summary of FIG. 1-6 and Table 1
From the text: as §1, §2, §3
The experimental strain was cultured to the logarithmic growth phase: under aseptic condition, the experimental strain was inoculated into 100 mL MHB medium and incubated in a constant temperature and humidity incubator at 37° C. for 20-22 hours. […]

[2] = tested on: carbapenem-resistant Acinetobacter baumannii CR-AB 18-183,18-560; assay: MIC by microbroth dilution method, CR-AB strains; details: 37° C., 20-22 hours
From the text: as §1, §2, §3, §4, §5, §6, §7, §8

[3] = tested on: vancomycin-resistant enterococci VRE 18-80,18-94; assay: MIC by microbroth dilution method, VRE strains; details: 37° C., 20-22 hours
From the text: as §1, §2, §3, §4, §5, §6, §7, §8

[4] = tested on: methicillin-resistant Staphylococcus aureus MRSA 18-222, 18-575; assay: MIC by microbroth dilution method, MRSA strains; details: for Minimum bacteriostatic concentration: 37° C., 20-22 hours
From the text: as §1, §2, §3, §4, §5, §6, §7, §8

Molecule | Minimum bacteriostatic concentration ([1]; strain MDR-PA 18-174) | Minimum bacteriostatic concentration ([1]; strain MDR-PA 18-202) | inhibitory effect on drug-resistant bacteria (drug-resistant bacteria) | Minimum bacteriostatic concentration ([2]; strain CR-AB 18-183) | Minimum bacteriostatic concentration ([2]; strain CR-AB 18-560) | Minimum bacteriostatic concentration ([3]; strain VRE 18-80) | Minimum bacteriostatic concentration ([3]; strain VRE 18-94) | Minimum bacteriostatic concentration ([4]; strain MRSA 18-222) | Minimum bacteriostatic concentration ([4]; strain MRSA 18-575) | MIC ([4]; Staphylococcus aureus, drug-resistant Gram-positive bacteria MRSA, strain not given)
O=C(O)c1cc(O)c2c(c1)C(=O)c1cccc(O)c1C2=O [Cassic acid] | >128 µg/mL | >128 µg/mL | no inhibitory effect | >128 µg/mL | >128 µg/mL | >128 µg/mL | >128 µg/mL | >128 µg/mL | >128 µg/mL | –
Cc1nnc(SCC2=C(C(=O)O)N3C(=O)[C@@H](NC(=O)Cn4cnnn4)[C@H]3SC2)s1 [Cefazolin sodium, cefazolin sodium] | 8 µg/mL | 128 µg/mL | – | >128 µg/mL | >128 µg/mL | 32 µg/mL | >128 µg/mL | >128 µg/mL | >128 µg/mL | –
CO/N=C(\C(=O)N[C@@H]1C(=O)N2C(C(=O)O)=C(CSc3nc(=O)c(=O)[nH]n3C)CS[C@H]12)c1csc(N)n1 [Ceftriaxone sodium, ceftriaxone sodium] | 128 µg/mL | 16 µg/mL | – | >128 µg/mL | >128 µg/mL | 8 µg/mL | >128 µg/mL | >128 µg/mL | >128 µg/mL | –
C/C=C/COC(=O)c1cc(O)c2c(c1)C(=O)c1cccc(O)c1C2=O [Crotonyl alcohol cassic acid ester, (E)-but-2-en-1-yl 4,5-dihydroxy-9,10-dioxo-9,10-dihydroanthracene-2-carboxylate] | >128 µg/mL | >128 µg/mL | – | >128 µg/mL | >128 µg/mL | >128 µg/mL | >128 µg/mL | 4 µg/mL | 4 µg/mL | 4 µg/mL (≈ 11.8 µM)
CC=CCO [Crotonyl alcohol, 2-butenol] | >128 µg/mL | >128 µg/mL | no inhibitory effect | >128 µg/mL | >128 µg/mL | >128 µg/mL | >128 µg/mL | >128 µg/mL | >128 µg/mL | –
gentamicin | 0.0625 µg/mL | 0.0625 µg/mL | – | >128 µg/mL | >128 µg/mL | 0.0625 µg/mL | >128 µg/mL | 128 µg/mL | 2 µg/mL | –
